Patent publication US7705004B2, “Protein kinase inhibitors” (Portola Pharmaceuticals, Inc., priority 2007, dated 2010)

How the values were obtained:
Type in all cases: cell-based
[1] = system: human washed platelets; test: Inhibition of Convulxin-mediated platelet calcium mobilization in vitro; conditions: 125 ng/mL Convulxin
Method: Inhibition of Convulxin-induced calcium mobilization was determined in human washed platelets using the FLIPR Calcium 3 Assay Kit (Molecular Devices, Sunnyvale, Calif.). For preparation of washed platelets, human venous blood was collected from healthy, drug-free volunteers into ACD (85 mM sodium citrate, 111 mM glucose, 71.4 mM citric acid) containing PGI2 (1.25 mL ACD containing 0.2 μM PGI2 final; PGI2 from Sigma, St. Louis, Mo.). Platelet-rich plasma (PRP) was prepared by centrifugation at 160×g for 20 minutes at room temperature. Washed platelets were prepared by centrifuging PRP for 10 minutes at 730×g and resuspending the platelet pellet in CGS (13 mM sodium citrate, 30 mM glucose, 120 mM NaCl; 2 mL CGS/10 mL original blood volume). The wash in CGS was repeated a second time, the platelets were collected by centrifugation at 730 g for 10 minutes and resuspended at a concentration of 3×10^8 platelets/mL in Hepes-Tyrode's buffer (10 mM Hepes, 138 mM NaCl, 5.5 mM glucose, 2.9 mM KCl, 12 mM NaHCO3, pH 7.4). This platelet suspension was allowed to rest for 45 minutes at room temperature before use in calcium mobilization assays.
For 96-well plate calcium-mobilization experiments, equal volumes of 3×10^8 washed platelets/mL were incubated with equal volumes of Calcium-3 Assay Reagent A resuspended in 1× Hank's Balanced Salt Solution, pH 7.4, 20 mM Hepes buffer. The total reaction volume of 0.2 mL/well included 1.5×10^8/mL washed platelet/Calcium-3 Assay reagent A mix, 10 μM Eptifibatide (Millennium Pharmaceuticals Inc, Cambridge, Mass.) and serial dilutions (1:3) of test compounds in 0.75% DMSO. DMSO alone was added to 1 well of each 8 set to allow for a maximal calcium-mobilization reading. After a 20 minute preincubation at room temperature, the 96-well microplate reader was loaded into the FlexStation (Molecular Devices, Sunnyvale, Calif.). The FlexStation experimental conditions for measuring calcium mobilization were set up using SOFTMax Pro. The settings used were as follows: Fluorescence parameters-assay mode: flex, excitation 485 nm, 525 nM with a cut-off of 515 nM; Parameters—PMT sensitivity-6, pipette height 230 μl, read time 2 minutes and 40 seconds, read intervals 2 seconds, temperature-23-25° C. After 18 seconds of baseline reading, calcium mobilization was initiated by the addition of Convulxin to a final concentration of 125 ng/mL. Inhibition of calcium mobilization was calculated as the maximum response observed in the presence of inhibitor, compared to that in the absence of inhibitor. IC50s were then derived by non-linear regression analysis.

[2] = system: IL-4 induced STAT-6 phosphorylation (JAK1/JAK3) in Ramos B-cells; test: JAK3/STAT6 cellular assay: IL-4 induced STAT-6 phosphorylation, intracellular flow cytometry; conditions: Homo sapiens, Ramos B-cells pre-treated 1 hour, IL-4 10 minutes
Excerpt: Similar types of assays can be used to assess JAK kinase inhibitory activity and to determine the degree of selectivity of the particular compound as compared to Syk kinase. One means of assaying for such inhibition is detection of the effect of the compounds of the present invention on the upregulation of downstream gene products. In the Ramos/IL4 assay, B-cells are stimulated with the cytokine Interleukin-4 (IL-4) leading to the activation of the JAK/Stat pathway through phosphorylation of the JAK family kinases, JAK1 and JAK3, which in turn phosphorylate and activate the transcription factor Stat-6. […] To study the effect of inhibitors (e.g., the 2,4-substituted pyrimindinediamine compounds described herein) on the JAK1 and JAK3 kinases, human Ramos B-cells are stimulated with human IL-4. 10′ post-stimulation, cells are subjected to intracellular flow cytometry to measure the extent of STAT-6 phosphorylation. 20 to 24 hours post-stimulation, cells are stained for upregulation of CD23 and analyzed using flow cytometry.
Stimulation of Ramos B-cells by IL-4 leads to signaling through JAK1/JAK3 resulting in phosphorylation of STAT6 (signal transducers and activators of transcription). The effect of compounds on inhibition of JAK3 and/or JAK1 can be assessed by measuring the amount of phosphorylated STAT6. This may be performed by Western blotting and/or intracellular flow cytometry using a specific phospho-STAT6 antibody. Data describing compound inhibition of IL-4 induced STAT-6 phosphorylation (measured by intracellular flow cytometry) for Compound 1-1 (Example 1) is presented in the following table.
For the data in the above Table, Ramos B-cells were pre-treated for 1 hour with increasing concentrations of Compound 1-1, as indicated prior to addition of IL-4. Cells were incubated with IL-4 for 10 minutes, and then subjected to intracellular flow cytometry to measure the percent inhibition of IL-4 induced Stat-6, as shown.

[3] = system: human platelet-rich plasma (PRP); test: Convulxin-induced aggregation assay (cuvette light transmittance); conditions: 125-250 ng/mL Convulxin, read-out: IC50, inhibition of convulxin-induced aggregation of platelet rich plasma
Method: For preparation of human platelet-rich plasma (PRP) for aggregation assays, human venous blood was collected from healthy, drug-free volunteers into 0.38% sodium citrate (0.013 M, pH 7.0 final). PRP was prepared by centrifugation of whole blood at 160×g for 20 minutes at room temperature. The PRP layer was removed, transferred to a new tube, and the platelet count was adjusted, if necessary, to achieve a platelet concentration of ˜3×10^8 platelets/mL using platelet-poor plasma (PPP). PPP was prepared by centrifugation of the remaining blood sample (after removal of PRP) for 20 minutes at 800×g. This preparation of PRP may be subsequently used for aggregation assays in either a 96-well plate or standard cuvette aggregometry.
Inhibition of Convulxin-induced aggregation was determined by cuvette light transmittance aggregation assays. Serial dilutions (1:2) of test compounds were prepared in 30% DMSO in a 96-well V-bottom plate (final DMSO concentration in the cuvette was 0.3%). The test compound (5 μl of serial dilutions in DMSO) was preincubated with PRP for 20 minutes prior to initiation of the aggregation reactions, which were performed in a ChronoLog aggregometer by addition of agonist (125-250 ng/mL Convulxin) to 495 μL of PRP at 37° C. The aggregation reaction was recorded for 4 minutes, and the maximum extent of aggregation was determined by the difference in extent of aggregation at baseline, compared to the maximum aggregation that occurred during the 4 minute period of the assay. Inhibition of aggregation was calculated as the maximum aggregation observed in the presence of inhibitor, compared to that in the absence of inhibitor. IC50s were derived by non-linear regression analysis.

CC(=O)N1CCN(c2ccc(Nc3nc(Nc4ccc5cn[nH]c5c4)c4cc[nH]c4n3)cc2)CC1 [Compound 1-1, 1-(4-(4-(4-(1H-indazol-6-ylamino)-7H-pyrrolo[2,3-d]pyrimidin-2-ylamino)phenyl)piperazin-1-yl)ethanone] was tested, and the IC50 [1] was less than 1 µM, the inhibition at 0.05 µM ([2]; 0.05 μM compound) was 0% and the inhibition at 0.125 µM ([2]; 0.125 μM compound) was 6%. For the same compound, the inhibition at 0.25 µM ([2]; 0.25 μM compound) was 22%, the inhibition at 0.5 µM ([2]; 0.5 μM compound) was 33% and the inhibition at 1 µM ([2]; 1 μM compound) was 41%. It also gave an inhibition at 2 µM ([2]; 2 μM compound) of 49% and an IC50 [3] of no more than 50 µM.
